# From PubChem BioAssay AID2060626 (Molecular Pharmacology Branch, DTP, NCI, 2025)
# Where “and” joins values, the source holds several entries; their conditions need not be identical. Equal values may be shown once.
# Test system: 168753-222-R-J1-PDC complex spheroid viability
# Assay: Anticancer human tumor 168753-222-R-J1-PDC patient-derived bladder carcinoma cell line growth inhibition [CLK]
# Settings: for IC50: curve of first compound; for viability, T/C: stronger effect = lower value
# Summary of the method: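 Patient-derived tumor cells grown as complex spheroids with HUVEC endothelial cells and mesenchymal stem cells, treated with drug combinations. Concentrations descend in half-log steps from near clinical Cmax, or from 10 microM if Cmax unknown.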
# [1] = second compound 0.0316 µM, first compound 0.0316 µM
# [2] = second compound 0.0316 µM, first compound 0.1 µM
# [3] = second compound 0.0316 µM, first compound 0.316 µM
# [4] = second compound 0.0316 µM, first compound 1 µM
# [5] = second compound 0.0316 µM, first compound 3.16 µM
# [6] = second compound 0.0316 µM, first compound 10 µM
# [7] = second compound 0.1 µM, first compound 0.0316 µM
# [8] = second compound 0.1 µM, first compound 0.1 µM
# [9] = second compound 0.1 µM, first compound 0.316 µM
# [10] = second compound 0.1 µM, first compound 1 µM
# [11] = second compound 0.1 µM, first compound 3.16 µM
# [12] = second compound 0.1 µM, first compound 10 µM
# [13] = second compound 0.316 µM, first compound 0.0316 µM
# [14] = second compound 0.316 µM, first compound 0.1 µM
# [15] = second compound 0.316 µM, first compound 0.316 µM
# [16] = second compound 0.316 µM, first compound 1 µM
# [17] = second compound 0.316 µM, first compound 3.16 µM
# [18] = second compound 0.316 µM, first compound 10 µM
# [19] = second compound 1 µM, first compound 0.0316 µM
# [20] = second compound 1 µM, first compound 0.1 µM
# [21] = second compound 1 µM, first compound 0.316 µM
# [22] = second compound 1 µM, first compound 1 µM
# [23] = second compound 1 µM, first compound 3.16 µM
# [24] = second compound 1 µM, first compound 10 µM
# [25] = second compound 3.16 µM, first compound 0.0316 µM
# [26] = second compound 3.16 µM, first compound 0.1 µM
# [27] = second compound 3.16 µM, first compound 0.316 µM
# [28] = second compound 3.16 µM, first compound 1 µM
# [29] = second compound 3.16 µM, first compound 3.16 µM
# [30] = second compound 3.16 µM, first compound 10 µM
# [31] = second compound 10 µM, first compound 0.0316 µM
# [32] = second compound 10 µM, first compound 0.1 µM
# [33] = second compound 10 µM, first compound 0.316 µM
# [34] = second compound 10 µM, first compound 1 µM
# [35] = second compound 10 µM, first compound 3.16 µM
# [36] = second compound 10 µM, first compound 10 µM
# 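Note: viability measured after seven days of drug exposure.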
# 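Throughout, for viability, T/C: luminescence signal used as surrogate for viable cell amount; 100% = DMSO vehicle control wells.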
compound,measurement,setting,value
O=C(c1cc(Cc2n[nH]c(=O)c3ccccc23)ccc1F)N1CCN(C(=O)C2CC2)CC1 + CN1CCN(c2cc(C(=O)Nc3cc4cc(-c5cnn(C)c5)ccc4cn3)ccn2)CC1,IC50,second compound 0.0316 µM,> 10000 nM
same,IC50,second compound 0.1 µM,424 nM
same,IC50,second compound 0.316 µM,< 31.6 nM
same,IC50,second compound 1 µM,< 31.6 nM
same,IC50,second compound 3.16 µM,< 31.6 nM
same,IC50,second compound 10 µM,< 31.6 nM
same,"viability, T/C",[1],73.3%
same,"viability, T/C",[2],75.6%
same,"viability, T/C",[3],72.5%
same,"viability, T/C",[4],88.2%
same,"viability, T/C",[5],73.6%
same,"viability, T/C",[6],77.8%
same,"viability, T/C",[7],45.6%
same,"viability, T/C",[8],67.2%
same,"viability, T/C",[9],52.5%
same,"viability, T/C",[10],40.3%
same,"viability, T/C",[11],31.5%
same,"viability, T/C",[12],40.1%
same,"viability, T/C",[13],10.2%
same,"viability, T/C",[14],8.85%
same,"viability, T/C",[15],8.61%
same,"viability, T/C",[16],7.84%
same,"viability, T/C",[17],9.11%
same,"viability, T/C",[18],10.2%
same,"viability, T/C",[19],0.19%
same,"viability, T/C",[20],0.34%
same,"viability, T/C",[21],0.16%
same,"viability, T/C",[22],0.63%
same,"viability, T/C",[23],0.66%
same,"viability, T/C",[24],0.35%
same,"viability, T/C",[25],0.24%
same,"viability, T/C",[26],0.12%
same,"viability, T/C",[27],0.18%
same,"viability, T/C",[28],0.08%
same,"viability, T/C",[29],0.96%
same,"viability, T/C",[30],0.39%
same,"viability, T/C",[31],0.6%
same,"viability, T/C",[32],0.32%
same,"viability, T/C",[33],0.35%
same,"viability, T/C",[34],0.18%
same,"viability, T/C",[35],0.41%
same,"viability, T/C",[36],1.31%
CC(C)CC(NC(=O)C(Cc1ccccc1)NC(=O)c1cnccn1)B(O)O (centres undefined) + CNC(=O)c1ccc(Nc2nc(OC3CCCC3)c3c(-c4ccc5nc(C)oc5c4)c[nH]c3n2)c(OC)c1,IC50,second compound 0.0316 µM,2.09 nM
same,IC50,second compound 0.1 µM,2.31 nM
same,IC50,second compound 0.316 µM,1.8 nM
same,IC50,second compound 1 µM,< 0.949 nM
same,IC50,second compound 3.16 µM,< 0.949 nM
same,IC50,second compound 10 µM,< 0.949 nM
same,"viability, T/C","second compound 0.0316 µM, first compound 0.000949 µM",98.6%
same,"viability, T/C","second compound 0.0316 µM, first compound 0.003 µM",27.7%
same,"viability, T/C","second compound 0.0316 µM, first compound 0.00949 µM",3.13%
same,"viability, T/C","second compound 0.0316 µM, first compound 0.03 µM",0.6%
same,"viability, T/C","second compound 0.0316 µM, first compound 0.0949 µM",1.66%
same,"viability, T/C","second compound 0.0316 µM, first compound 0.3 µM",0.44%
same,"viability, T/C","second compound 0.1 µM, first compound 0.000949 µM",89.3%
same,"viability, T/C","second compound 0.1 µM, first compound 0.003 µM",38.4%
same,"viability, T/C","second compound 0.1 µM, first compound 0.00949 µM",1.22%
same,"viability, T/C","second compound 0.1 µM, first compound 0.03 µM",0.27%
same,"viability, T/C","second compound 0.1 µM, first compound 0.0949 µM",0.53%
same,"viability, T/C","second compound 0.1 µM, first compound 0.3 µM",2.04%
same,"viability, T/C","second compound 0.316 µM, first compound 0.000949 µM",76.4%
same,"viability, T/C","second compound 0.316 µM, first compound 0.003 µM",29%
same,"viability, T/C","second compound 0.316 µM, first compound 0.00949 µM",0.8%
same,"viability, T/C","second compound 0.316 µM, first compound 0.03 µM",0.28%
same,"viability, T/C","second compound 0.316 µM, first compound 0.0949 µM",1.74%
same,"viability, T/C","second compound 0.316 µM, first compound 0.3 µM",0.24%
same,"viability, T/C","second compound 1 µM, first compound 0.000949 µM",38.4%
same,"viability, T/C","second compound 1 µM, first compound 0.003 µM",26.5%
same,"viability, T/C","second compound 1 µM, first compound 0.00949 µM",2.8%
same,"viability, T/C","second compound 1 µM, first compound 0.03 µM",0.43%
same,"viability, T/C","second compound 1 µM, first compound 0.0949 µM",2.22%
same,"viability, T/C","second compound 1 µM, first compound 0.3 µM",1.45%
same,"viability, T/C","second compound 3.16 µM, first compound 0.000949 µM",21.6%
same,"viability, T/C","second compound 3.16 µM, first compound 0.003 µM",20.2%
same,"viability, T/C","second compound 3.16 µM, first compound 0.00949 µM",0.44%
same,"viability, T/C","second compound 3.16 µM, first compound 0.03 µM",0.17%
same,"viability, T/C","second compound 3.16 µM, first compound 0.0949 µM",0.2%
same,"viability, T/C","second compound 3.16 µM, first compound 0.3 µM",0.35%
same,"viability, T/C","second compound 10 µM, first compound 0.000949 µM",21%
same,"viability, T/C","second compound 10 µM, first compound 0.003 µM",18.4%
same,"viability, T/C","second compound 10 µM, first compound 0.00949 µM",0.38%
same,"viability, T/C","second compound 10 µM, first compound 0.03 µM",1.09%
same,"viability, T/C","second compound 10 µM, first compound 0.0949 µM",1.85%
same,"viability, T/C","second compound 10 µM, first compound 0.3 µM",0.25%
CCN1CCN(Cc2ccc(Nc3ncc(F)c(-c4cc(F)c5nc(C)n(C(C)C)c5c4)n3)nc2)CC1,"viability, T/C",compound 0.00316 µM,97.4% and 95.4%
same,"viability, T/C",compound 0.01 µM,80.3% and 94%
same,"viability, T/C",compound 0.0316 µM,37.7% and 78.4%
same,"viability, T/C",compound 0.1 µM,44.1% and 77.1%
same,"viability, T/C",compound 0.316 µM,25.1% and 68.1%
same,"viability, T/C",compound 1 µM,36.4% and 64.2%
CC(=O)O[C@H]1C(=O)[C@@]2(C)[C@H]([C@H](OC(=O)c3ccccc3)[C@]3(O)C[C@H](OC(=O)[C@H](O)[C@@H](NC(=O)c4ccccc4)c4ccccc4)C(C)=C1C3(C)C)[C@]1(OC(C)=O)CO[C@@H]1C[C@@H]2O + CNC(=O)c1ccc(Nc2nc(OC3CCCC3)c3c(-c4ccc5nc(C)oc5c4)c[nH]c3n2)c(OC)c1,IC50,second compound 0.0316 µM,130 nM
same,IC50,second compound 0.1 µM,> 10000 nM
same,IC50,second compound 0.316 µM,> 10000 nM
same,IC50,second compound 1 µM,< 31.6 nM
same,IC50,second compound 3.16 µM,< 31.6 nM
same,IC50,second compound 10 µM,< 31.6 nM
same,"viability, T/C",[1],74.5%
same,"viability, T/C",[2],39.9%
same,"viability, T/C",[3],30.9%
same,"viability, T/C",[4],33.1%
same,"viability, T/C",[5],53.4%
same,"viability, T/C",[6],53.2%
same,"viability, T/C",[7],80.8%
same,"viability, T/C",[8],64.2%
same,"viability, T/C",[9],64.6%
same,"viability, T/C",[10],67.7%
same,"viability, T/C",[11],86.6%
same,"viability, T/C",[12],88.2%
same,"viability, T/C",[13],79.1%
same,"viability, T/C",[14],80.5%
same,"viability, T/C",[15],77.5%
same,"viability, T/C",[16],79.9%
same,"viability, T/C",[17],85%
same,"viability, T/C",[18],93.9%
same,"viability, T/C",[19],52.3%
same,"viability, T/C",[20],34.7%
same,"viability, T/C",[21],41.2%
same,"viability, T/C",[22],29.4%
same,"viability, T/C",[23],52.9%
same,"viability, T/C",[24],62.7%
same,"viability, T/C",[25],20.9%
same,"viability, T/C",[26],22.2%
same,"viability, T/C",[27],26.7%
same,"viability, T/C",[28],31.1%
same,"viability, T/C",[29],29.9%
same,"viability, T/C",[30],36.4%
same,"viability, T/C",[31],20.9%
same,"viability, T/C",[32],18.6%
same,"viability, T/C",[33],23.8%
same,"viability, T/C",[34],29.1%
same,"viability, T/C",[35],35.4%
same,"viability, T/C",[36],31.4%
O=c1[nH]cc(F)c(=O)[nH]1 + CNC(=O)c1ccc(Nc2nc(OC3CCCC3)c3c(-c4ccc5nc(C)oc5c4)c[nH]c3n2)c(OC)c1,IC50,second compound 0.0316 µM,> 10000 nM
same,IC50,second compound 0.1 µM,> 10000 nM
same,IC50,second compound 0.316 µM,> 10000 nM
same,IC50,second compound 1 µM,< 31.6 nM
same,IC50,second compound 3.16 µM,< 31.6 nM
same,IC50,second compound 10 µM,< 31.6 nM
same,"viability, T/C",[1],110%
same,"viability, T/C",[2],113%
same,"viability, T/C",[3],106%
same,"viability, T/C",[4],108%
same,"viability, T/C",[5],92.3%
same,"viability, T/C",[6],98.5%
same,"viability, T/C",[7],92.3%
same,"viability, T/C",[8],94.8%
same,"viability, T/C",[9],86.8%
same,"viability, T/C",[10],115%
same,"viability, T/C",[11],90.4%
same,"viability, T/C",[12],85.1%
same,"viability, T/C",[13],83.6%
same,"viability, T/C",[14],77.3%
same,"viability, T/C",[15],66.5%
same,"viability, T/C",[16],73.4%
same,"viability, T/C",[17],68.8%
same,"viability, T/C",[18],67%
same,"viability, T/C",[19],42.1%
same,"viability, T/C",[20],36%
same,"viability, T/C",[21],27.9%
same,"viability, T/C",[22],28.2%
same,"viability, T/C",[23],31.7%
same,"viability, T/C",[24],27.7%
same,"viability, T/C",[25],20.3%
same,"viability, T/C",[26],18.1%
same,"viability, T/C",[27],19.9%
same,"viability, T/C",[28],15.6%
same,"viability, T/C",[29],18.4%
same,"viability, T/C",[30],24.6%
same,"viability, T/C",[31],17.1%
same,"viability, T/C",[32],17.1%
same,"viability, T/C",[33],18.7%
same,"viability, T/C",[34],15.7%
same,"viability, T/C",[35],18.6%
same,"viability, T/C",[36],23.5%
